Data set [1] can be described thus: physchem. Conditions: pH 6.5.
The nature of data set [2]: physchem. Conditions: pH 6.5. This is another data set of the same source.
Data set [3] relates to B16-C melanoma cells. The experiment in a line: Melanin formation inhibitory activity in B16-C melanoma cells (Experiment 2). The class given is cell-based, mouse. The procedure: After 2 ml of MEM medium (manufactured by Nissui Pharmaceutical Co.) (serum concentration of 5%) was added in a 6-well culture plate, mouse-derived B16-C melanoma cells were plated at 2×10^5 cells/well and test compounds were then separately added. B16-C melanoma cells were cultured at 37° C. in 5% CO2 incubator. On Day 3 and Day 5, the medium was exchanged and at the same time, the test compounds were separately added. On Day 7, the medium was removed. The cells were trypsinized and resuspended in PBS and pelleted by centrifugation. […] The protein content in the cells and the amount of melanin formed were determined, whereby the amount of melanin formed (μg) per protein content (mg) were calculated. The protein content and the amount of melanin formed were quantitatively determined by the method of Bradford et al. [Analytical Biochemistry, 72, 248-254 (1976)] and by measuring absorbance of the test solution at 470 nm [Cancer Research, 45, 1474-1478 (1985)], respectively.

Data set [4] is described as follows: physchem. The note with it: water.
A short description of data set [5]: Water solubility.
Data set [6] is described as follows: Storage stability: residual rate after allowing to stand at 40° C. for 30 days.
The nature of data set [7]: Heat stability: residual rate after heating at 100° C. for 20 minutes. Conditions: pH 6.5.
The mark [8] stands for this setting: 0.25 mM, first series (nothing added: 211.4 ± 11.45).
The mark [9] stands for this setting: 0.5 mM, first series (nothing added: 211.4 ± 11.45).
Where [10] appears, read: 1.0 mM, first series (nothing added: 211.4 ± 11.45).

In general, share remaining refers to the share of the starting amount still present when the sample was taken. Low readings indicate more turnover, high ones less turnover. For orientation: solubility means the concentration that dissolves in the medium under given conditions. Lower therefore signals little dissolved substance.

Converted amounts (≈) assume the structure as drawn. Numbered stars: 1 amine (or outer) side, 2 acyl side, 3 side chain; on linkers, the order of the positions; unused ones are H or OH. Bridge positions count the residues as written; N and C are the ends. Square brackets hold non-standard residues; d marks the D form. Peptide text beside a SMILES is read from it. I, II: the chains in the order shown. γGlu = O=C(O)[C@H](CCC(=O)[*:2])N[*:1]

In the case of `CC(=O)N[C@@H](CCC(=O)N[C@@H](CSSC[C@H](NC(=O)CC[C@H](NC(C)=O)C(=O)O)C(=O)NCC(=O)O)C(=O)NCC(=O)O)C(=O)O` [N,N'-diacetyl-oxidized glutathione, N,N'-diacetyl oxidized glutathione] (I: Ac-[γGlu]-Cys-Gly-OH / II: Ac-[γGlu]-Cys-Gly-OH; disulfide I:2-II:2), the amount remaining at 20 min, 10000 µM in data set [1] was determined as 100%. The same compound registered a fraction remaining at 720 h, 10000 µM in data set [2] of 100%. Besides, the “Melanin Content/Protein Content” value stood at 221.4 ± 18.6 µg/mg in data set [3] (1.0 mM, second series (nothing added: 330.1 ± 22.5)) and 198.1 ± 8.5 µg/mg in data set [3] (2.0 mM, second series (nothing added: 330.1 ± 22.5)). The “Inhibition of melanin formation in B16-C melanoma cells” value in data set [3] (Table 3) is reported as “significantly inhibiting melanin formation”. Besides, the solubility in data set [4] is above 200 mg/mL.

In turn, `N[C@@H](CCC(=O)N[C@@H](CSSC[C@H](N)C(=O)O)C(=O)O)C(=O)O` [γ-L-glutamyl-L-cystine] came in with a share remaining at 20 min, 10000 µM in data set [1] of 100%. This compound also returned a share remaining at 720 h, 10000 µM in data set [2] of 100%. The compound also displayed a solubility in data set [4] above 742 mg/mL.

For the compound `OC[C@H]1O[C@@H](Oc2ccc(O)cc2)[C@H](O)[C@@H](O)[C@@H]1O` [Arbutin], the amount remaining at 20 min, 10000 µM in data set [1] was 100%. Also, the fraction remaining at 720 h, 10000 µM in data set [2] is 100%. The entries for the “Melanin Content/Protein Content” value in data set [3] (setting [8]), in data set [3] (setting [9]) and in data set [3] (setting [10]) were 108.7 ± 13.04 µg/mg, 89.2 ± 13.48 µg/mg and “growth inhibition”, respectively. In data set [4], the concentration in solution (solubility) was 142 mg/mL (≈ 520 mM).

In turn, `N[C@@H](CCC(=O)N[C@@H](CSSC[C@H](NC(=O)CC[C@H](N)C(=O)O)C(=O)O)C(=O)O)C(=O)O` [γ-L-glutamyl-L-cysteine disulfide] showed a share remaining at 20 min, 10000 µM in data set [1] of 100%. The same compound yielded an amount remaining at 720 h, 10000 µM in data set [2] of 100%. For the same compound, the “Melanin Content/Protein Content” value in data set [3] (setting [9]) was 189.3 ± 10.56 µg/mg; in data set [3] (setting [10]), 155.6 ± 7.68 µg/mg; in data set [3] (2.0 mM, first series (nothing added: 211.4 ± 11.45)), 154.7 ± 12.16 µg/mg. For the same compound, in data set [3] (Table 3), the “Inhibition of melanin formation in B16-C melanoma cells” value is on record as “significantly inhibiting melanin formation”. This compound also displayed a solubility in data set [4] above 554 mg/mL.

In data set [1], `N[C@@H](CCC(=O)N[C@@H](CS)C(=O)NCC(=O)O)C(=O)O` [Glutathione, γ-L-glutamyl-L-cysteinyl-glycine] yielded an amount remaining at 20 min, 10000 µM of 70%. Moreover, in data set [2], the amount remaining at 720 h, 10000 µM was 0%.

`O=c1cc(CO)occ1O` [Kojic acid]: the concentration in solution in data set [5] (solubility) came to 48.3 mg/mL (≈ 340 mM). The Coloration result in data set [6] (40° C., 30 days, pH 6.5, 10 mM) is “colored”. This compound came in with a fraction remaining at 720 h, 10000 µM in data set [6] (pH 6.5) of 100%. In data set [7], this compound yielded a fraction remaining at 20 min, 10000 µM of 100%. For the same compound, the results for the “Melanin Content/Protein Content” value in data set [3] (setting [8]), in data set [3] (setting [9]) and in data set [3] (setting [10]) were 233.7 ± 14.37 µg/mg, 202.4 ± 11.49 µg/mg and 188.6 ± 9.93 µg/mg, respectively. In addition, the “Activity for inhibiting melanin formation as compared with γ-L-glutamyl-L-cysteine disulfide and oxidized glutathione” value in data set [3] (Table 3) is given as “poorer”.
